US9006285B2, “Therapeutic agent for hepatitis C” (Mochida Pharmaceutical Co., Ltd., priority 2008, dated 2015)

What was measured:
[1] = tested on: hepatitis C virus (HCV); assay: Response rate to repeated interferon therapy after EPA-E in non-responders or relapsers (Example 2-1); assay type: in vivo, human; settings: 1800 to 2700 mg/day oral for three months before repeated interferon therapy; six months after completion of interferon therapy
Procedure: Employing those hepatitis C patients as targets who were determined as non-responders or relapsers after interferon therapy, it is confirmed that the response rate to the interferon therapy is improved in re-treatment cases by the administration of EPA-E.
The patients to be tested are divided into two groups, namely, EPA-E administered group and EPA-E non-administered group. To the EPA-E administered group, 1800 to 2700 mg/day of EPA-E is orally administered for three months after the patients were determined as non-responders or relapsers with respect to the interferon therapy. To the EPA-E non-administered group, none of EPA and derivatives thereof is administered during the testing period. Subsequently, the interferon therapy is conducted again on both groups. The dose, dosage interval, dosage period, and the like of interferon are specified as appropriate to the condition of a patient, side effects of the interferon, and so forth. The ratio at which the patients became negative for the HCV-RNA level is calculated six months after the completion of interferon therapy.
It is confirmed that the ratio as calculated is higher in the EPA-E administered group than the EPA-E non-administered group.

[2] = tested on: hepatitis C virus (HCV); assay: EPA-E before and during interferon therapy in hepatitis C with or without hepatic steatosis (Example 2-2); assay type: in vivo, human; settings: 1800 to 2700 mg/day oral at least one month before and during interferon therapy
Procedure: The patients to be tested are divided into two groups, EPA-E administered group and EPA-E non-administered group. In addition, a fatty liver group and a non-fatty liver group are set up in each of the EPA-E administered group and the EPA-E non-administered group by investigating the degree of hepatic fatty change through diagnostic imaging or hepatobiopsy. To the EPA-E administered group, 1800 to 2700 mg/day of EPA-E is orally administered for at least one month before interferon therapy. To the EPA-E non-administered group, none of EPA and derivatives thereof is administered during the testing period. Subsequently, interferon therapy is conducted on each group for three months or longer. The dose, dosage interval, dosage period, and the like of interferon are specified as appropriate to the condition of a patient, side effects of the interferon, and so forth. After the termination of interferon administration, the alanine aminotransferase (ALT) activity and the HCV-RNA level are measured (the latter by a COBAS AMPLICOR MONITOR assay), and a hepatohistological test is conducted. It should be noted that EPA-E is also administered to the EPA-E group during the administration of interferon.

[3] = tested on: blood HCV-RNA level (hepatitis C virus); assay: Interferon therapy (interferon and ribavirin) with or without EPA-E in hepatitis C patients, by blood triglyceride level (Example 3); assay type: in vivo, human; settings: hepatitis C complicated with hypertriglyceridemia; interferon therapy along with oral 1800 to 2700 mg/day EPA-E
Source text: The determination of the response rate to interferon therapy needs a follow-up survey for six months or longer after the completion of the therapy, that is to say, is time-consuming. The response rate can be determined earlier by using a leading index as a surrogate. For instance, the response rate to interferon therapy is expected to be increased if the reduction in viral load (reduction in blood HCV-RNA level) is significant three days after the start of the therapy. Accordingly, the reduction in viral load three days after the start of interferon therapy can be used as a leading index for the determination of the response rate to the interferon therapy. The reduction in viral load is preferably not less than 2.0 as the difference between the common logarithm value of the blood HCV-RNA level before the start of interferon therapy and the common logarithm value of the blood HCV-RNA level three days after the start of interferon therapy.
On the patients having hepatitis C complicated with hypertriglyceridemia, the interferon therapy was then conducted along with the oral administration of 1800 to 2700 mg/day of EPA-E.
As a result, the reduction in viral load was 2.375 on average, that is to say, EPA-E improved the effectiveness of the interferon therapy in the patients having hepatitis C complicated with hypertriglyceridemia. […]

[4] = tested on: hepatitis C virus (HCV); assay: EPA-E in interferon non-responders having hepatitis C complicated with hepatic steatosis (Example 1); assay type: in vivo, human; settings: 2700 mg/day oral, third and sixth month, no interferon
Procedure: To the patients from whom interferon was withdrawn for about one month after they were determined to be unresponsive to interferon therapy, 2700 mg/day of EPA-E is orally administered for three months or longer. During the testing period, it is forbidden to administer any new drug considered to effect change in hepatic function. Also forbidden is administration of interferon. If the alanine aminotransferase (ALT) activity and/or the HCV-RNA level is quantified (the latter by a COBAS AMPLICOR MONITOR assay) before EPA-E administration, as well as on the third month and the sixth month of EPA-E administration, and the values as obtained are compared with those before administration, it is confirmed that the ALT activity and/or the HCV-RNA level is reduced by not less than 10%.
Instead of the ALT activity, improvement in liver tissue finding, reduction in lipid droplet, or reduction in proportion of 18:1 fatty acids (oleic acid in particular) among liver triglyceride fractions may be confirmed.

[5] = healthy male adult, cited from earlier work
[6] = tested on: blood HCV-RNA level (hepatitis C virus); assay: Time to negativity for the blood HCV-RNA level on repeated interferon therapy after EPA-E (Example 2-3); assay type: in vivo, human; settings: 1800 to 2700 mg/day oral at least two weeks before repeated interferon therapy
Procedure: Employing those hepatitis C patients as targets who were determined as non-responders or relapsers after interferon therapy, it is confirmed that the time at which the patients become negative for the blood HCV-RNA level is allowed to be earlier by the administration of EPA-E.
The patients to be tested are divided into two groups, EPA-E administered group and EPA-E non-administered group. To the EPA-E administered group, 1800 to 2700 mg/day of EPA-E is orally administered for at least two weeks after the patients were determined as non-responders or relapsers with respect to the interferon therapy. To the EPA-E non-administered group, none of EPA and derivatives thereof is administered during the testing period. Subsequently, the interferon therapy is conducted again on both groups. The dose, dosage interval, dosage period, and the like of interferon are specified as appropriate to the condition of a patient, side effects of the interferon, and so forth. The blood HCV-RNA level is measured in course of the administration of interferon. Data on the time after the start of interferon administration at which the patients became negative for the blood HCV-RNA level are collected to comparison between the two groups.
For instance, the ratio of the patients becoming negative for the blood HCV-RNA level within 12 weeks after the start of interferon administration is increased.

[7] = tested on: hepatitis C virus (HCV); settings: hepatitis C patients; cited from earlier work
[8] = tested on: HCV replication in OR6 cells; settings: cited from earlier work
[9] = in vivo; cited from earlier work
[10] = tested on: HCV replication in Ava5 cells; settings: cited from earlier work
[11] = in one week of continuous oral administration

Compound: CC/C=C\C/C=C\C/C=C\C/C=C\C/C=C\CCCC(=O)OCC [EPA-E, ethyl icosapentate]
- ratio at which patients became negative for the HCV-RNA level, versus EPA-E non-administered group [1]: higher
- effect on hepatitis C complicated with hepatic steatosis versus not complicated with hepatic steatosis ([2]; ALT, HCV-RNA, hepatohistological test): greater
- reduction in viral load (difference between common logarithm values of the blood HCV-RNA level), on average [3]: 2.375
- reduction of HCV-RNA level compared with before administration ([4]; COBAS AMPLICOR MONITOR assay): not less than 10%
- reduction of ALT activity compared with before administration [4]: not less than 10%
- time at which the plasma EPA level reaches a plateau ([5]; continuous oral administration): one week
- plasma EPA/AA (arachidonic acid) ratio [5, 11]: higher than 1.0
- plasma EPA/AA relative to that before administration [5, 11]: about two times
- ratio of patients becoming negative for the blood HCV-RNA level within 12 weeks after start of interferon administration [6]: increased
- time at which patients become negative for the blood HCV-RNA level, versus EPA-E non-administered group [6]: shows a tendency to be earlier

Compound: IFN-α
- HCV elimination rate [7]: about 30%

Compound: CC/C=C\C/C=C\C/C=C\C/C=C\C/C=C\CCCC(=O)O [EPA, icosapentaenoic acid]
- effect of interferon and EPA in combination versus interferon alone on hepatitis C complicated with hepatic steatosis [2]: greater effect
- HCV replication-inhibiting effect independent of cytotoxicity [8]: only linoleic acid had the HCV replication-inhibiting effect
- anaemia during combination therapy with interferon and ribavirin [9]: can prevent anaemia
- HCV replication [10]: inhibited HCV replication

Compound: CCCCC/C=C\C/C=C\C/C=C\C/C=C\CCCC(=O)O [arachidonic acid]
- HCV replication-inhibiting effect independent of cytotoxicity [8]: only linoleic acid had the HCV replication-inhibiting effect
- HCV replication [10]: inhibited HCV replication

Compound: CCCCC/C=C\C/C=C\CCCCCCCC(=O)O [linoleic acid]
- HCV replication-inhibiting effect independent of cytotoxicity [8]: only linoleic acid had the HCV replication-inhibiting effect

Compound: CC/C=C\C/C=C\C/C=C\C/C=C\C/C=C\C/C=C\CCC(=O)O [DHA, docosahexaenoic acid]
- HCV replication-inhibiting effect independent of cytotoxicity [8]: only linoleic acid had the HCV replication-inhibiting effect
